Consider seven compounds from ChEMBL document CHEMBL3044745, “Synthesis and evaluation of biological and nonlinear optical properties of some novel 2,4-disubstituted [1,3]-thiazoles carrying 2-(aryloxymethyl)-phenyl moiety” (2013).

Holding throughout (format): functional
Test [1] concerns Staphylococcus aureus. Put plainly: Antibacterial activity against Staphylococcus aureus assessed as growth inhibition at 10 ug/disk. To be noted: read-out: IZ.
Test [2] has as its system Bacillus subtilis. The experiment in a line: Antibacterial activity against Bacillus subtilis assessed as growth inhibition at 10 ug/disk. The conditions noted are these: read-out: IZ.
The subject of test [3] is Aspergillus niger. Put plainly: Antifungal activity against Aspergillus niger assessed as growth inhibition at 10 ug/disk. To be noted: read-out: IZ.
Test [4] has as its system Pseudomonas aeruginosa. The experiment in a line: Antibacterial activity against Pseudomonas aeruginosa assessed as growth inhibition at 10 ug/disk. To be noted: read-out: IZ.
Test [5] relates to Rattus norvegicus. Put plainly: Anti-inflammatory activity in Rattus norvegicus Wistar albino (rat) assessed as inhibition of carrageenan-induced paw edema at 10 mg/kg, po relative to untreated control.
In test [6] the test system is Escherichia coli. Put plainly: Antibacterial activity against Escherichia coli assessed as growth inhibition at 10 ug/disk. The conditions noted are these: read-out: IZ.
Test [7] concerns Candida albicans. Put plainly: Antifungal activity against Candida albicans assessed as growth inhibition at 10 ug/disk. To be noted: read-out: IZ.

By inhibition in vivo is commonly meant the change of the read-out against control, counted positive when it falls. `Cc1ccccc1OCc1ccccc1-c1nc(-c2ccc(O)c(C(N)=O)c2)cs1`: the zone of inhibition at 10 µg/disc in test [1] worked out at 18 mm; in test [2], 18 mm; in test [3], 18 mm; in test [4] it was 21 mm; in test [6] it was 20 mm; in test [7], 16 mm. In test [5], the inhibition in vivo at 10 mg/kg turned out to be 40.5%.

Regarding `Cc1cccc(OCc2ccccc2-c2nc(-c3ccc(O)c(C(N)=O)c3)cs2)c1`, the zone of inhibition at 10 µg/disc in test [1] turned out to be 22 mm; in test [2], 22 mm; in test [3], 11 mm; in test [4], 22 mm; in test [6], 20 mm; in test [7], 18 mm. Besides, in test [5], the inhibition in vivo at 10 mg/kg worked out at 42.9%.

With `Cc1ccc(OCc2ccccc2-c2nc(-c3ccc(O)c(C(N)=O)c3)cs2)cc1`, the zone of inhibition at 10 µg/disc stood at 20 mm in test [1]; 20 mm in test [2]; 18 mm in test [3]; 20 mm in test [4]; 19 mm in test [6]; 20 mm in test [7]. The inhibition in vivo at 10 mg/kg in test [5] was 46.7%.

In the case of `NC(=O)c1cc(-c2csc(-c3ccccc3COc3ccc(Cl)cc3)n2)ccc1O`, the zone of inhibition at 10 µg/disc in test [1] came out at 28 mm; in test [2], 26 mm; in test [3], 25 mm; in test [4], 24 mm; in test [6], 28 mm; in test [7], 27 mm. Besides, in test [5], the inhibition in vivo at 10 mg/kg was determined as 72.2%.

Turning to `Cc1ccccc1OCc1ccccc1-c1nc(-c2cc(Cl)sc2S(N)(=O)=O)cs1`, the zone of inhibition at 10 µg/disc is 22 mm in test [1]; 20 mm in test [2]; 16 mm in test [3]; 22 mm in test [4]; 20 mm in test [6]; 18 mm in test [7]. For the same compound, the inhibition in vivo at 10 mg/kg in test [5] was determined as 70.1%.

Take `Cc1cccc(OCc2ccccc2-c2nc(-c3cc(Cl)sc3S(N)(=O)=O)cs2)c1`: the zone of inhibition at 10 µg/disc in test [1] amounted to 18 mm; in test [2], 16 mm; in test [3] it was 18 mm; in test [4] it was 18 mm; in test [6], 20 mm; in test [7], 19 mm. For the same compound, the inhibition in vivo at 10 mg/kg in test [5] was determined as 66.8%.

Turning to `Cc1ccc(OCc2ccccc2-c2nc(-c3cc(Cl)sc3S(N)(=O)=O)cs2)cc1`, the zone of inhibition at 10 µg/disc in test [1] turned out to be 20 mm; in test [2], 18 mm; in test [3], 16 mm; in test [4], 20 mm; in test [6], 22 mm; in test [7], 20 mm. The inhibition in vivo at 10 mg/kg in test [5] was found to be 68.7%.
